The source made the active and inactive calls.
How the values were obtained:
[1] = THP-1 cell cytotoxicity, dose response, cytotoxicity control for non-replicating M. tuberculosis project (AID 489025); type: functional
[2] = Vero E6 cell cytotoxicity, dose response, cytotoxicity control for non-replicating M. tuberculosis project, secondary assay (AID 492998); type: functional, VeroE6; details: Vero C1008
cells = type: functional
[3] = molecular target: T1, RNA-binding protein pos-1 (Caenorhabditis elegans, UniProt G5EF15); test: inhibitors of POS-1/mex-3 RNA binding, dose response, biochemical, fluorescence polarization (AID 1964);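 further: purified POS-1 fused to maltose binding protein made in E. coli; potency of compounds blocking POS-1 binding to fluorescent RNA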
T1 sequence (G5EF15 whole entry): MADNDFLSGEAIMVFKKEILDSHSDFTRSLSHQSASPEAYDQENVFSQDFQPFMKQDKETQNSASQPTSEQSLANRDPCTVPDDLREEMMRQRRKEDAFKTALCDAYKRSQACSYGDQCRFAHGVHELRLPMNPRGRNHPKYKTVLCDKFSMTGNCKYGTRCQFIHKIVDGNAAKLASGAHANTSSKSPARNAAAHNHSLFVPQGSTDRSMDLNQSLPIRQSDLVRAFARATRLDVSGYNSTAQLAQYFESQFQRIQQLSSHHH

[4] = molecular target: T2, Zinc finger protein mex-5 (Caenorhabditis elegans, UniProt Q9XUB2); test: MEX-5/TCR-2 RNA interaction inhibitors, dose response, biochemical, C. elegans, fluorescence polarization (AID 1960)
T2 sequence (Q9XUB2 whole entry): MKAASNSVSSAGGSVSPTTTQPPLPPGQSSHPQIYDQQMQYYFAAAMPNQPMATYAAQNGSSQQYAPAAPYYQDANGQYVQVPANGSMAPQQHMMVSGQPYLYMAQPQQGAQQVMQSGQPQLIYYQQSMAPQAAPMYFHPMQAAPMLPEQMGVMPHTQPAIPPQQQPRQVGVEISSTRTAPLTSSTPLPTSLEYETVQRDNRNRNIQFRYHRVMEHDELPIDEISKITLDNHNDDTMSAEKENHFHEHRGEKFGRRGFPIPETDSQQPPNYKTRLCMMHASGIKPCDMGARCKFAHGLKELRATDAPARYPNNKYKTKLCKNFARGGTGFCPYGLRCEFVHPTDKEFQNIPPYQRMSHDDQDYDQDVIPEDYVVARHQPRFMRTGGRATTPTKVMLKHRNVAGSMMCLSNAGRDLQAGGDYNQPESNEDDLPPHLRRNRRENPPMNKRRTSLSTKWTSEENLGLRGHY

H9c2 = test: cells; type: functional, cell-based; details: Rattus norvegicus, H9c2, Myocardium;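 further: confirmatory concentration-response retest of ultra-high-throughput screening hits for modulation of myocardial damage; cell death induced by hydrogen peroxide oxidative stress; compound pretreatment for 60 min then peroxide exposure for 2 h; potency is for protecting the cells against peroxide damage rather than for killing them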
Fatty acid synthase [5] = molecular target: T3, Fatty acid synthase (Homo sapiens, UniProt P49327); test: FAS thioesterase domain inhibitors, dose response, biochemical, endpoint fluorescence intensity, uHTS hits (AID 624327); type: functional;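 further: fluorescence from hydrolysis of an O-methyl fluorescein acyl ester substrate by the enzyme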
T3 sequence (P49327 whole entry, the tested form may be a part): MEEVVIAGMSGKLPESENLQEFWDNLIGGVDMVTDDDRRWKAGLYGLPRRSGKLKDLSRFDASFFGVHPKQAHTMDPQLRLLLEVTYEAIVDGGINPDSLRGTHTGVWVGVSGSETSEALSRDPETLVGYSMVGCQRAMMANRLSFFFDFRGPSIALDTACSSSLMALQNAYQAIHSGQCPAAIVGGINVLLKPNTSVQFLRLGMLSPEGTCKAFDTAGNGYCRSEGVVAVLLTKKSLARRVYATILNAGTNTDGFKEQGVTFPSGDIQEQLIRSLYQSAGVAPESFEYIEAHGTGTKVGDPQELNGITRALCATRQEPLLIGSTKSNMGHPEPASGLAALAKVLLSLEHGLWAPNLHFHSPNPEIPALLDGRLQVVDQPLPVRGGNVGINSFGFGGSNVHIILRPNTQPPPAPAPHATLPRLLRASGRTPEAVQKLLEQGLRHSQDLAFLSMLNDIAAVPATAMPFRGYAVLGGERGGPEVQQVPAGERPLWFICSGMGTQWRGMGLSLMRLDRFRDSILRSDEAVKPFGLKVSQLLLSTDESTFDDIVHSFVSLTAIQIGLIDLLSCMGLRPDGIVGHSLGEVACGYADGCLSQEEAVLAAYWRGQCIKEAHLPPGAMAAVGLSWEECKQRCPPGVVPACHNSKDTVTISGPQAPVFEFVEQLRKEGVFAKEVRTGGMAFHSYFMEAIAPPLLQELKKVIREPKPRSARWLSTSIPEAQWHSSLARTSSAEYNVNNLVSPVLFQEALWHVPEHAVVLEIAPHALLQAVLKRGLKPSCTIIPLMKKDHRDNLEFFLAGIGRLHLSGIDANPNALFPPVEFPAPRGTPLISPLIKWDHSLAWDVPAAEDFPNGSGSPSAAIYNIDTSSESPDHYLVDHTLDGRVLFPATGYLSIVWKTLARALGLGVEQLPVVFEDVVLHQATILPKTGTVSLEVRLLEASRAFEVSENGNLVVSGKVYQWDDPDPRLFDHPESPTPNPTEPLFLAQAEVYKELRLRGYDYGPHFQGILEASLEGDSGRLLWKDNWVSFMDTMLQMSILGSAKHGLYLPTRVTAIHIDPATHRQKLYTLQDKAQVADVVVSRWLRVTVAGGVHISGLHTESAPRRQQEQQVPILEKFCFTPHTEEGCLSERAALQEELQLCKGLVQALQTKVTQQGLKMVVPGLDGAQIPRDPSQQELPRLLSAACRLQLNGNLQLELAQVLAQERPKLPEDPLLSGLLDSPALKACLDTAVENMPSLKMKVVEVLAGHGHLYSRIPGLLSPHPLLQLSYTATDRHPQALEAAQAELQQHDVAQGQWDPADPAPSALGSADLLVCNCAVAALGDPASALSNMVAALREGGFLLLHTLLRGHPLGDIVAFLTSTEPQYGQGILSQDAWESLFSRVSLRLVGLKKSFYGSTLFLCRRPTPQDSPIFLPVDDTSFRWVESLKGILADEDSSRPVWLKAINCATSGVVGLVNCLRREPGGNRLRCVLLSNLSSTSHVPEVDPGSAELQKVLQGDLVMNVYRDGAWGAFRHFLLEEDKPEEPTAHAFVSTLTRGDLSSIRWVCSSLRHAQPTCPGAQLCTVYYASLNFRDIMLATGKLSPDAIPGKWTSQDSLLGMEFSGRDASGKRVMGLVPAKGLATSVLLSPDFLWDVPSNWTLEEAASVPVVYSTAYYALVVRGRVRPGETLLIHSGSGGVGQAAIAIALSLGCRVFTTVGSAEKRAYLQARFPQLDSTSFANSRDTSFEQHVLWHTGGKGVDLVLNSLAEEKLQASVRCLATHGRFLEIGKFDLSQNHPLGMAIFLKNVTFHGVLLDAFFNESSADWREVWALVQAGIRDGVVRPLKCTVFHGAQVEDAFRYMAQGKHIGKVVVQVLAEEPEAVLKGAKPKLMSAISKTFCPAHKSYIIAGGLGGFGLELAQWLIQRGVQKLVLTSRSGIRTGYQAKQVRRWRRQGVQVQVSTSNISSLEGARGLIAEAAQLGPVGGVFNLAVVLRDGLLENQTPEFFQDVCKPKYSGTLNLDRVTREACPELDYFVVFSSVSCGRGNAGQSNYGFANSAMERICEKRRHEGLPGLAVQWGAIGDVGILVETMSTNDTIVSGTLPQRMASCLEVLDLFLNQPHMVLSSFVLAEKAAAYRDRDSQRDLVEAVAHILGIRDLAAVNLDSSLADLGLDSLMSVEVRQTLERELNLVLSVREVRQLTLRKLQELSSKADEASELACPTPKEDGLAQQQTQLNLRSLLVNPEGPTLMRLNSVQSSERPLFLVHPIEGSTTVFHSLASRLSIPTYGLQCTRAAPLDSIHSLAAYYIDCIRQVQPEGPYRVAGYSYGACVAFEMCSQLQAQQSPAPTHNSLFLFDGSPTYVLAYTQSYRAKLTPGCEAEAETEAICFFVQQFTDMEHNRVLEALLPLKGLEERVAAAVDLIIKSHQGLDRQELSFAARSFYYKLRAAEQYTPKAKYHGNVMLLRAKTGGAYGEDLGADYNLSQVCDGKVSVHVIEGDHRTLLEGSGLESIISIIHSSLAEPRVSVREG

Fatty acid synthase [6] = molecular target: T3, Fatty acid synthase; test: FAS thioesterase domain inhibitors, dose response, biochemical, kinetic fluorescence intensity (AID 624326); type: functional;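 further: rate of fluorescence rise from hydrolysis of a fluorogenic O-methyl fluorescein ester substrate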
[7] = molecular target: T4, Heat shock factor protein 1 (Mus musculus, UniProt P38532); test: HSF1 potentiators in luciferase reporter cells, confirmation, cell-based, NIH3T3, luminescence, dose retest (AID 435004); type: functional;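 further: stress induced by proteasome inhibitor MG132 added 30 min after compound; luciferase reporter driven by HSF1 response element in NIH3T3 cells; actives raise luminescence as potentiators of the MG132 stress response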
T4 sequence (P38532 whole entry): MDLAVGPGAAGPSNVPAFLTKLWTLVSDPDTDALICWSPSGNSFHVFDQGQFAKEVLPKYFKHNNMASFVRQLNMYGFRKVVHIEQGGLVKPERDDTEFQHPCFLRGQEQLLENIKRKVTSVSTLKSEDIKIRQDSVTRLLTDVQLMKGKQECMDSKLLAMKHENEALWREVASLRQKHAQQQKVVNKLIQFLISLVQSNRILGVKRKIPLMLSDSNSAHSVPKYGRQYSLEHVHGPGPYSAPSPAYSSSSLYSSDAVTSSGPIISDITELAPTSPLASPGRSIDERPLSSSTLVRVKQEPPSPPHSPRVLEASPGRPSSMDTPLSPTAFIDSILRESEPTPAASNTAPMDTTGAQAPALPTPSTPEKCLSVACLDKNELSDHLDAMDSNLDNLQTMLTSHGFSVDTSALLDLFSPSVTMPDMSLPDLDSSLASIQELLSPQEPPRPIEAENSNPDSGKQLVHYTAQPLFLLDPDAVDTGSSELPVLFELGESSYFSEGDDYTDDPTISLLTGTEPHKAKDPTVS

[8] = molecular target: T5, High affinity choline transporter 1 (Homo sapiens, UniProt Q9GZV3); test: CHT inhibitors, dose response, cell-based, 5-point CRC, membrane potential dye (AID 504840); type: functional
T5 sequence (Q9GZV3 whole entry): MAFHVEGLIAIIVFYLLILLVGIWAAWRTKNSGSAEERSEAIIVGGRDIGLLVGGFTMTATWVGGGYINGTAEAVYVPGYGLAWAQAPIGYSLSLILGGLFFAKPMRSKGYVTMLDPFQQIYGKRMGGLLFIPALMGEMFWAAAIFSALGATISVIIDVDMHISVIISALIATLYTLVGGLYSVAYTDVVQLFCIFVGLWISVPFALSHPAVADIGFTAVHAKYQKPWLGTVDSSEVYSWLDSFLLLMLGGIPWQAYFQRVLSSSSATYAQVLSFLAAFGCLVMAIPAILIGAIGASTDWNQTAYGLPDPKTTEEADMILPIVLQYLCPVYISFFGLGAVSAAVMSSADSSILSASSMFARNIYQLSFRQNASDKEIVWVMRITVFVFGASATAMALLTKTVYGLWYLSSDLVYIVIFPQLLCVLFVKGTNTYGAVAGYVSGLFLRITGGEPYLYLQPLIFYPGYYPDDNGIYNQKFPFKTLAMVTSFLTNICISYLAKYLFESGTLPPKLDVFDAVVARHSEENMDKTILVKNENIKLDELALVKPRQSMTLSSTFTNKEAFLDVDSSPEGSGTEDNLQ

[9] = Shn3 3'UTR reporter inhibitors, dose response, cell-based, Clone20 osteoblasts, firefly luciferase, cherry-picked (AID 624132); type: functional;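 further: firefly luciferase luminescence from reporter carrying the Shn3 3'UTR in osteoblasts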
[10] = HepG2 cell cytotoxicity, dose response, cytotoxicity control for Shn3 inhibitor project, CellTiter-Glo, cherry-picked (AID 624134); type: functional, cell-based
[11] = control 3'UTR Renilla luciferase suppression, dose response, counter-screen for Shn3 inhibitor project, cell-based, Clone20-Shn3RL, cherry-picked (AID 624133); type: functional
[12] = molecular target: T6, Corticotropin-releasing factor receptor 2/Corticotropin-releasing factor-binding protein (Homo sapiens, UniProt P24387+Q13324); test: activators of CRF receptor 2 with binding protein – uHTS hits, confirmation (AID 602473); type: functional; details: read-out: EC50_Mean
T6 sequence (Q13324 whole entry): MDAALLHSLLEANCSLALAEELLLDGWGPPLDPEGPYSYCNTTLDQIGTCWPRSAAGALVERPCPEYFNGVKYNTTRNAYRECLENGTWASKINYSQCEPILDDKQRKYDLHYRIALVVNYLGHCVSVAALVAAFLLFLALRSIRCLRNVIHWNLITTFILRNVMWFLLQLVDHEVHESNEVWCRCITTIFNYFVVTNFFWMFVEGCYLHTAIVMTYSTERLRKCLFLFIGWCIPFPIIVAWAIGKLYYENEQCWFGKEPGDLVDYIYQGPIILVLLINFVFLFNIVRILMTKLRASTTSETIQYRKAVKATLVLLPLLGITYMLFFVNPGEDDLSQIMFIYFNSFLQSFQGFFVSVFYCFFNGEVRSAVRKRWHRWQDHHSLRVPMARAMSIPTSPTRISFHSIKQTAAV
T6 sequence (P24387 whole entry): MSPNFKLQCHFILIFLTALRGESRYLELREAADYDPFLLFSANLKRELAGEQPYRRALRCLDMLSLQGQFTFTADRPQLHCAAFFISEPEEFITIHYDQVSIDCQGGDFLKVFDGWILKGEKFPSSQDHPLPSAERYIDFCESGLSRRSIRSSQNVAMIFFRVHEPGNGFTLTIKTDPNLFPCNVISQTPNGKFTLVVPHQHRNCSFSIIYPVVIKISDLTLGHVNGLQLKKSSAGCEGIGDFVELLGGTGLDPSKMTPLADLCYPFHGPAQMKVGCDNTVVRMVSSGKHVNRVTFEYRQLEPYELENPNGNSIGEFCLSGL

[13] = molecular target: T7, Carboxy-terminal domain RNA polymerase II polypeptide A small phosphatase 1 (Homo sapiens, UniProt Q9GZU7); test: inhibitors of CTDSP1, concentration-response testing, biochemical assay, absorbance-based, actives from ultra-high-throughput screening (AID 540297); type: functional
T7 sequence (Q9GZU7 whole entry): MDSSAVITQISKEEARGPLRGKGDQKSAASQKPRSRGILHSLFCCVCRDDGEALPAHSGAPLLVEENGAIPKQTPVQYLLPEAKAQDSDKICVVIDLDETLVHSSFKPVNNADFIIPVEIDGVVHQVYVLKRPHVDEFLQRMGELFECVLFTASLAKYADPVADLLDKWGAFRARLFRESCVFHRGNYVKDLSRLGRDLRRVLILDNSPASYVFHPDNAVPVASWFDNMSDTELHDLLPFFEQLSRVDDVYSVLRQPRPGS

[14] = inhibitors of clade B AD8 Env fusion, dose response, cell-based, cherry-pick (AID 652062); type: functional;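 further: luciferase signal from cell-cell fusion driven by HIV-1 clade B AD8 Env; potency is for inhibitors of fusion seen as a drop in luminescence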
H4 = test: Luminescence Cell-Based Dose Response HTS to Identify Activators of 5'UTR Stem-Loop Driven Prion Protein mRNA Translation in H4 Neuroglioblastoma Cells. [Related pubchem assays: 1829 (Project Summary), 1814 (Primary HTS)]; type: functional; details: Homo sapiens

Cc1cc(Br)ccc1OCC(=O)NNC(=O)c1cnccn1
CC50 [1]: > 40 µM (active) | CC50 [2]: 17.8 µM (active) | IC50 (cells): 8.2 µM (active)

Nc1c(C(=O)N/N=C/c2cccnc2)oc2nc(-c3ccccc3)cc(-c3ccco3)c12
EC50 [3]: > 300 µM (not active) | EC50 [4]: > 300 µM (not active) | IC50 (H9c2): > 79 µM (inactive)

O=C(COc1ccc([N+](=O)[O-])cc1)N1CCc2ccccc2C1
IC50 (Fatty acid synthase [5]): 6.92 µM (active) | IC50 (Fatty acid synthase [6]): 3.46 µM (active)

O=[N+]([O-])c1cccc(NC(S)=NCCc2ccccc2)c1
IC50 (Fatty acid synthase [5]): 10.1 µM (active) | IC50 (Fatty acid synthase [6]): 9.04 µM (active)

O=C(NC1CCCCC1)c1cnn2c(C(F)(F)F)cc(-c3ccco3)nc12
EC50 [7]: > 260 µM (inactive)

COCCn1c(CN2CCN(c3cccc(Cl)c3)CC2)nc2c1c(=O)n(C)c(=O)n2C
IC50 [8]: 12.3 µM (active) | AC50 [9]: 10.7 µM (active) | AC50 [10]: 52.3 µM (active) | AC50 [11]: 11 µM (active)

COc1cc2c(C(=O)NCc3ccccn3)cn(CC(C)C)c(=O)c2cc1OC
IC50 (H9c2): > 79 µM (inactive)

N#C/C(=N\Nc1cccc(Cl)c1)C(=O)c1ccccc1
IC50 [8]: 13.8 µM (active) | EC50 [12]: > 53 µM (inactive)

Cn1c(=O)c(NC(=O)c2ccccc2)c2n(c1=S)CCCCC2
IC50 [13]: 14.3 µM (active)

COc1cccc(OC)c1C(=O)Nc1ccc(Br)c(C(=O)c2ccccc2)c1
IC50 (H9c2): 31.1 µM (inactive)

Cc1cc(C)nc(N2N=C(CSc3ccc(Cl)cc3)CC2=O)n1
IC50 [8]: 15.1 µM (active)

Cn1c(NN)nc2c1c(=O)n(Cc1ccccc1)c(=O)n2C
IC50 [13]: 25.2 µM (active)

O=C(Cn1cc(C(=O)C2CC2)c2ccccc21)NCc1ccc2c(c1)OCO2
IC50 (Fatty acid synthase [5]): 14.3 µM (active) | IC50 (Fatty acid synthase [6]): 8.36 µM (active)

O=C(C[C@@H]1C[C@@H]2c3cc(NS(=O)(=O)c4ccc(F)cc4)ccc3O[C@@H]2[C@H](CO)O1)NCc1ccccc1F
AC50 [14]: 1.75 µM (active)

COc1ccc(/C=C/C(=O)OCC(=O)NCc2ccco2)cc1OC
IC50 [13]: 14.5 µM (active)

NC(=S)N/N=C1/CCSc2ccc3ccccc3c21
IC50 [8]: 6.48 µM (active)

O=C(NCC(=O)N(Cc1cccs1)C(C(=O)NC1CCCCC1)c1ccco1)c1cccs1 (stereo not drawn)
IC50 (H9c2): 8.09 µM (active)

CNc1nc(SC(C)C(=O)Nc2ccc(Cl)c(Cl)c2)nc(N2CCOCC2)n1 (stereo not drawn)
EC50 [7]: > 260 µM (inactive)

COCOc1cc(O)c(C(=O)/C=C/c2ccccc2)c(OCOC)c1
EC50 [7]: 22.1 µM (active)

O=C(O)/C(=C/c1ccc(Cl)c([N+](=O)[O-])c1)c1ccc(S(=O)(=O)N2CCCCC2)s1
IC50 (Fatty acid synthase [5]): 15.4 µM (active) | IC50 (Fatty acid synthase [6]): 12.6 µM (active)

CCN1C(=O)[C@H]2[C@H]3CN=C(SCC4CC4)N3[C@@](Cc3ccccc3)(C(=O)OC)[C@H]2C1=O
IC50 [13]: 12.1 µM (active)

CCOc1ccc2nc(COC(=O)c3cccc([N+](=O)[O-])c3)c(C(C)=O)[n+]([O-])c2c1
EC50 [7]: > 260 µM (inactive)

CNC(=O)c1cccc(NC(=O)c2cc(-c3ccccc3)nc3c2cnn3C(C)C)c1
IC50 (H9c2): > 79 µM (inactive)

Cc1ccc2c(C)c(C(=O)N3CCC(N4CCC(C(=O)NC5CC5)CC4)CC3)oc2c1
IC50 [8]: 14.5 µM (active)

COc1ccccc1OCCSc1nc(O)c2ccccc2n1
IC50 (H9c2): 14.4 µM (active)

COc1cccc(NC(=O)COC(=O)c2ccc(S(=O)(=O)NCc3ccco3)cc2)c1
IC50 [13]: 7.96 µM (active)

CC(C)(C)NC(=O)CC1C[C@H](C(=O)N2CCOCC2)[C@@]2(CCC3CCCC3)c3[nH]c4ccccc4c3CCN2C1=O (stereo partly drawn)
IC50 (Fatty acid synthase [5]): 2.31 µM (active) | IC50 (Fatty acid synthase [6]): 4.15 µM (active)

COc1ccc(-c2cc(C(F)F)n3ncc(C(=O)Nc4ccc(C(=O)N5CCOCC5)cc4)c3n2)cc1
IC50 (H9c2): > 79 µM (inactive)

O=[N+]([O-])c1ccc(O)c(CSc2nnnn2-c2ccccc2)c1
IC50 [8]: 12 µM (active)

COc1ccc([C@@H]2[C@@H]3C(=O)N(C(C)(C)C)C(=O)[C@@H]3[C@]3(Cc4ccccc4)C(=O)N(c4cccc(Br)c4)C(=O)N23)cc1
IC50 (Fatty acid synthase [5]): 21.5 µM (inactive) | IC50 (Fatty acid synthase [6]): 13.7 µM (active)

O=[N+]([O-])c1cccn2cc(-c3ccc(Br)cc3)nc12
EC50 (H4): > 120 µM (not active) | IC50 [13]: 9.74 µM (active)

Cc1ccc(C(C)C)c(OCC(=O)NS(=O)(=O)c2ccc(Cl)cc2)c1
IC50 [8]: 11.8 µM (active)

NCCCCCc1nnc(SCc2ccc(Cl)c(Cl)c2)o1
IC50 [8]: 13.2 µM (active)
